Legend:
KARPAS-299 = experiment: Antiproliferative activity against NPM-ALK positive human KARPAS-299 cells assessed as inhibition of cell growth incubated for 72 hrs by MTT assay; type: functional, cell-based; details: KARPAS-299, 72 h
A549 = experiment: Antiproliferative activity against EGFR positive human A549 cells assessed as inhibition of cell growth incubated for 72 hrs by MTT assay; type: functional, cell-based; details: A549, 72 h
NCI-H2228 = experiment: Antiproliferative activity against EML4-ALK positive human NCI-H2228 cells assessed as inhibition of cell growth incubated for 72 hrs by MTT assay; type: functional, cell-based; details: NCI-H2228, 72 h
[1] = biological target: Epidermal growth factor receptor (Homo sapiens, UniProt P00533); experiment: Inhibition of human EGFR (669 to 1210 residues) cytoplasmic domain expressed in baculovirus infected Sf21 cells incubated for 1 hrs in the presence of ATP by mobility shift assay
[2] = biological target: ALK tyrosine kinase receptor (Homo sapiens, UniProt Q9UM73, G1202R); experiment: Inhibition of N-terminal GST-tagged human ceritinib-resistant ALK G1202R mutant (1058 to 1620 residues) cytoplasmic domain expressed in baculovirus infected Sf21 cells incubated for 1 hrs in the presence of ATP by mobility shift assay
[3] = biological target: ALK tyrosine kinase receptor (Homo sapiens, UniProt Q9UM73); experiment: Inhibition of N-terminal GST-tagged human wild type ALK (1058 to 1620 residues) cytoplasmic domain expressed in baculovirus infected Sf21 cells incubated for 1 hrs in the presence of ATP by mobility shift assay
[4] = biological target: ALK tyrosine kinase receptor (Homo sapiens, UniProt Q9UM73, L1196M); experiment: Inhibition of N-terminal GST-tagged human ceritinib-resistant ALK L1196M mutant (1058 to 1620 residues) cytoplasmic domain expressed in baculovirus infected Sf21 cells incubated for 1 hrs in the presence of ATP by mobility shift assay
Sequence of ALK tyrosine kinase receptor (Homo sapiens, UniProt Q9UM73, L1196M) (Q9UM73 19-1620 L1196M limits assumed): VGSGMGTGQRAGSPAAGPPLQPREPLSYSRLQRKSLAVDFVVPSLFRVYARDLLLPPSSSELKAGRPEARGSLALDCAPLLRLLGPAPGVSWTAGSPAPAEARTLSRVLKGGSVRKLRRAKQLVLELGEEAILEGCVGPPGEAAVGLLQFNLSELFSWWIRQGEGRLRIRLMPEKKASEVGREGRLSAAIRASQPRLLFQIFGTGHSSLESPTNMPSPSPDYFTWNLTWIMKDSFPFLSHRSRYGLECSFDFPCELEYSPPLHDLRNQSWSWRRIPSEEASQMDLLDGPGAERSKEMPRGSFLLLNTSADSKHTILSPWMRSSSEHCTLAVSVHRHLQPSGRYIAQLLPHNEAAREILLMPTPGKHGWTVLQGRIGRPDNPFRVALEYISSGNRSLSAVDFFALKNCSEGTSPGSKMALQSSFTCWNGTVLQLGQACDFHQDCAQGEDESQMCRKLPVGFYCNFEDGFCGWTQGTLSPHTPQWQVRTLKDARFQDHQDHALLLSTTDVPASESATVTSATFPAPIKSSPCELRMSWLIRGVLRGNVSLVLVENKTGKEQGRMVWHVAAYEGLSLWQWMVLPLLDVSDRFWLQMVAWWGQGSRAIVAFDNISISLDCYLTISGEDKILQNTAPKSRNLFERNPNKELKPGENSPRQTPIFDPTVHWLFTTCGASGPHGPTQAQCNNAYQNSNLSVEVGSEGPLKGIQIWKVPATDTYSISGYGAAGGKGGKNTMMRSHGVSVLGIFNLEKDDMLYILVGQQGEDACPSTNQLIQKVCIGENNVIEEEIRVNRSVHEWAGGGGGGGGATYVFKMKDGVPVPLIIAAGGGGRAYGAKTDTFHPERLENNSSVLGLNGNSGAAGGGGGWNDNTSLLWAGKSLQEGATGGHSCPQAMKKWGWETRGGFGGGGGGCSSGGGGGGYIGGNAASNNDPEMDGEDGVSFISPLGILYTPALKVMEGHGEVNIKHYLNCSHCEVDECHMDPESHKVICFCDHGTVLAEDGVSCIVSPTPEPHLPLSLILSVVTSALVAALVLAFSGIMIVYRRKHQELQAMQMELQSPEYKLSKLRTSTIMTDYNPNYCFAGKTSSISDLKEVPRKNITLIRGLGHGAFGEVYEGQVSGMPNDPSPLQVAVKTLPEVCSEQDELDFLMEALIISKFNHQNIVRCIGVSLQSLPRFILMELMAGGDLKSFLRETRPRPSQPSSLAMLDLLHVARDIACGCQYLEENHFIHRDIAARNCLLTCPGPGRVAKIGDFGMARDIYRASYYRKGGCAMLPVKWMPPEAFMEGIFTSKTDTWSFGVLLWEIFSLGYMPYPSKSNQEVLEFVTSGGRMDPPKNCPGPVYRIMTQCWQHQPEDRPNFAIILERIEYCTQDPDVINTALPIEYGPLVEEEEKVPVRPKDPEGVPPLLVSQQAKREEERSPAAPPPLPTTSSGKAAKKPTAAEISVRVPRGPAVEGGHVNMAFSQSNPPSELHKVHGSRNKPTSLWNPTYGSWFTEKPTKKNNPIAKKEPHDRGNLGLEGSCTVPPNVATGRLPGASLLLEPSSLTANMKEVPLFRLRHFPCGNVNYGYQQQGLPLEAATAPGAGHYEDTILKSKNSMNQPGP

Sequence of ALK tyrosine kinase receptor (Homo sapiens, UniProt Q9UM73, G1202R) (Q9UM73 19-1620 G1202R limits assumed): as the sequence (Q9UM73 19-1620 L1196M limits assumed) above, with M1178L, G1184R counted along it
Sequence of ALK tyrosine kinase receptor (Homo sapiens, UniProt Q9UM73) (Q9UM73 whole entry, the tested form may be a part): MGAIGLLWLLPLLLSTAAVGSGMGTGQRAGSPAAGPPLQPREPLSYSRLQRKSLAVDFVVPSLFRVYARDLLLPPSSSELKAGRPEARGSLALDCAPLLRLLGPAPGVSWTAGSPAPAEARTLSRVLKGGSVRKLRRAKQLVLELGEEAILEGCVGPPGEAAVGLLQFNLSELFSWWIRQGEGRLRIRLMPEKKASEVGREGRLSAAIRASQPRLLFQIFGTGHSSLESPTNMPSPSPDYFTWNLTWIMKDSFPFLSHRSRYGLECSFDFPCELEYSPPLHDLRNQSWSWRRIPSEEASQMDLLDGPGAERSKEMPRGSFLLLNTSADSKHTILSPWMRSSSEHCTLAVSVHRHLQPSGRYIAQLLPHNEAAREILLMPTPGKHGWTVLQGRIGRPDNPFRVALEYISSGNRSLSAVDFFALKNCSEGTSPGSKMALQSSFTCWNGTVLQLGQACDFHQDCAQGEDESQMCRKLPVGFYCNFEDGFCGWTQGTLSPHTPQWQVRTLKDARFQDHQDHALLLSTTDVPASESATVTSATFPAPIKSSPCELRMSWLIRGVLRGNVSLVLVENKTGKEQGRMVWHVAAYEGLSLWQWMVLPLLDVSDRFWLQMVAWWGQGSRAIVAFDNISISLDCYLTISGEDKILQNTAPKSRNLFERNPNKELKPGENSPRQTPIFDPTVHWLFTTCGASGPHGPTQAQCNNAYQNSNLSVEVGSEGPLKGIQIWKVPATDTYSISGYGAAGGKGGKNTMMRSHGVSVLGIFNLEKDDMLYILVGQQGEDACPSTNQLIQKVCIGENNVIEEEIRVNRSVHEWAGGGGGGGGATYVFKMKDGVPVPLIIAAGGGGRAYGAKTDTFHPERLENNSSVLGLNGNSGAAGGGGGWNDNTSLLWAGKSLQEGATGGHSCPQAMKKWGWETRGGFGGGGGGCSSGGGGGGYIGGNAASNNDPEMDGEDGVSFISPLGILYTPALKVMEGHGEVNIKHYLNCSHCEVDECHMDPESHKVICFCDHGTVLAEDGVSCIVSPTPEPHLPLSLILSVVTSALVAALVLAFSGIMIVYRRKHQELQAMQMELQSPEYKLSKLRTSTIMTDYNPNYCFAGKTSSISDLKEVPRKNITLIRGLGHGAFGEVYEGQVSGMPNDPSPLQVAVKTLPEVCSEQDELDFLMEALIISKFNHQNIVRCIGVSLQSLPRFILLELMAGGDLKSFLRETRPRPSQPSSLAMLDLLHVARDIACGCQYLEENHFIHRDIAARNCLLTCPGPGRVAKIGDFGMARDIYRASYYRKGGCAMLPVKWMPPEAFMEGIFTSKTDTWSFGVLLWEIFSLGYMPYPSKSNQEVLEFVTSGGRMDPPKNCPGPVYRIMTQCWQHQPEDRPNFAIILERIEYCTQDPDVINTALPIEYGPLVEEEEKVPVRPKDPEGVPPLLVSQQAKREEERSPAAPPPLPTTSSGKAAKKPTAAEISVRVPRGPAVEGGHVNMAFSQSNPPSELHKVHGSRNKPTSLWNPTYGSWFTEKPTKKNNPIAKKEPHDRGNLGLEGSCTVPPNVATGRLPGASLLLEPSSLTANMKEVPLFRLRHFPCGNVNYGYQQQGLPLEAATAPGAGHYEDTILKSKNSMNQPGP
Sequence of Epidermal growth factor receptor (P00533 whole entry, the tested form may be a part): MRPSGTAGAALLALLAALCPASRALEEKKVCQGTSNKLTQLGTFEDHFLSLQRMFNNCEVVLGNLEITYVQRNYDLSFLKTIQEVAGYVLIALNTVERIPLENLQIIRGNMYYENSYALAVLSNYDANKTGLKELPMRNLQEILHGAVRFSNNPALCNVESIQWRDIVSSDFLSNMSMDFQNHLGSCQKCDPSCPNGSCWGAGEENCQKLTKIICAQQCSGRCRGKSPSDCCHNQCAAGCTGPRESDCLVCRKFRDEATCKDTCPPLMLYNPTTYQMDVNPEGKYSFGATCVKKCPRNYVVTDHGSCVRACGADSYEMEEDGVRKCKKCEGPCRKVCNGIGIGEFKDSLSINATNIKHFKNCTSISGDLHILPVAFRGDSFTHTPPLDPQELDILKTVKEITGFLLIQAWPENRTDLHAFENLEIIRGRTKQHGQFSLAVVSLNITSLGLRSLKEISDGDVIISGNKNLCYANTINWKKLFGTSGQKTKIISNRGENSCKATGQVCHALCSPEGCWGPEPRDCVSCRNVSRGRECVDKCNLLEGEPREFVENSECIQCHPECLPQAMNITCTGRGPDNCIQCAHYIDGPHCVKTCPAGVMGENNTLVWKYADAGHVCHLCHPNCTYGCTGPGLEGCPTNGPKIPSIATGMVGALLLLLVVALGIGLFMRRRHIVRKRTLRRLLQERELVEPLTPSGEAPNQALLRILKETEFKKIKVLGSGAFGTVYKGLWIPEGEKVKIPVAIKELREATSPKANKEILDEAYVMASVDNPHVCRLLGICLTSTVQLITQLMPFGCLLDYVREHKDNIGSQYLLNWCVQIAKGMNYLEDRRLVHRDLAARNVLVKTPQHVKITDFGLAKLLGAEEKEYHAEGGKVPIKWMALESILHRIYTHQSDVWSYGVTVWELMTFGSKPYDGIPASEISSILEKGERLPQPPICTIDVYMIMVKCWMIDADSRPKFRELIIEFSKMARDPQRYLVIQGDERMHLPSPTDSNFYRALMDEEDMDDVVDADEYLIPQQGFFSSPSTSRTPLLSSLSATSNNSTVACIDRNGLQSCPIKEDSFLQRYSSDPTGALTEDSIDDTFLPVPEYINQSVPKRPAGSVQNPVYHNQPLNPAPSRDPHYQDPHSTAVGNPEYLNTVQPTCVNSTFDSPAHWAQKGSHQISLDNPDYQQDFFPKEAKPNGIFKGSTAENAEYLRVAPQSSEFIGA

What does the source list for `CNC(=O)c1ccccc1Nc1nc(Nc2ccc3c(C(=O)N4CCOCC4)c(C)[nH]c3c2)ncc1Cl`?
IC50 (KARPAS-299): 42 nM; IC50 (A549): 5790 nM; IC50 (NCI-H2228): 69 nM

For `Cc1[nH]c2cc(Nc3ncc(Cl)c(Nc4ccccc4NS(C)(=O)=O)n3)ccc2c1C(=O)N1CCN(C)CC1`, which IC50 (KARPAS-299) is on record?
The IC50 was 113 nM.

What about the IC50 (A549) of the same compound?
The IC50 was > 20000 nM.

What about the IC50 (NCI-H2228) of the same compound?
The IC50 was 214 nM.

For `CCCc1[nH]c2cc(Nc3ncc(Cl)c(Nc4ccccc4C(=O)NC)n3)ccc2c1C(=O)OCC`, which IC50 (KARPAS-299) is on record?
The IC50 was 1170 nM.

And the IC50 (A549)?
The IC50 was 7750 nM.

What about the IC50 (NCI-H2228) of the same compound?
The IC50 was 4350 nM.

`Cc1[nH]c2cc(Nc3ncc(Cl)c(Nc4ccccc4NS(C)(=O)=O)n3)ccc2c1C(=O)N1CCN(CCO)CC1` was tested. Which IC50 (KARPAS-299) did it give?
The IC50 was 735 nM.

And the IC50 (A549)?
Its IC50 is > 20000 nM.

What about the IC50 (NCI-H2228) of the same compound?
The IC50 was 329 nM.

What does the source list for `Cc1[nH]c2cc(Nc3ncc(Cl)c(Nc4ccccc4NS(C)(=O)=O)n3)ccc2c1C(=O)N1CC(O)C1`?
IC50 (KARPAS-299): 802 nM; IC50 (A549): > 20000 nM; IC50 (NCI-H2228): 494 nM

Which IC50 (KARPAS-299) does the source give for `CNC(=O)c1ccccc1Nc1nc(Nc2ccc3c(C(=O)N4CCN(CCO)CC4)c(C)[nH]c3c2)ncc1Cl` here?
The IC50 was 826 nM.

And the IC50 (A549)?
The IC50 was 13300 nM.

What about the IC50 (NCI-H2228) of the same compound?
Its IC50 is 933 nM.

Which IC50 (KARPAS-299) does the source give for `COC(=O)c1c(C)[nH]c2cc(Nc3ncc(Cl)c(Nc4ccccc4NC(C)=O)n3)ccc12` here?
The IC50 was 600 nM.

What about the IC50 (A549) of the same compound?
Its IC50 is 2960 nM.

What about the IC50 (NCI-H2228) of the same compound?
Its IC50 is 2560 nM.

`Cc1[nH]c2cc(Nc3ncc(Cl)c(Nc4ccccc4NS(C)(=O)=O)n3)ccc2c1C(=O)N1CCOCC1` was tested. Which IC50 [1] did it give?
The IC50 was > 1000 nM.

And the IC50 (KARPAS-299)?
Its IC50 is 86 nM.

What about the IC50 [2] of the same compound?
Its IC50 is 5.9 nM.

What about the IC50 [3] of the same compound?
Its IC50 is 5.7 nM.

What about the IC50 (A549) of the same compound?
The IC50 was 5360 nM.

And the IC50 (NCI-H2228)?
Its IC50 is 317 nM.

What about the IC50 [4] of the same compound?
The IC50 was 6.6 nM.

Which results are given for `Cc1[nH]c2cc(Nc3ncc(Cl)c(Nc4ccccc4NS(C)(=O)=O)n3)ccc2c1C(=O)O`?
IC50 (KARPAS-299): 2160 nM; IC50 (A549): 5800 nM; IC50 (NCI-H2228): 2600 nM

What does the source list for `CNC(=O)c1ccccc1Nc1nc(Nc2ccc3c(C(=O)OC)c(C)[nH]c3c2)ncc1Cl`?
IC50 [1]: > 1000 nM; IC50 (KARPAS-299): 37 nM; IC50 [2]: 6.3 nM; IC50 [3]: 3 nM; IC50 (A549): 3720 nM; IC50 (NCI-H2228): 77 nM; IC50 [4]: 3.4 nM

What does the source list for `CCOC(=O)c1c(C)[nH]c2cc(Nc3ncc(Cl)c(Nc4ccccc4NS(C)(=O)=O)n3)ccc12`?
IC50 (KARPAS-299): 53 nM; IC50 (A549): 1470 nM; IC50 (NCI-H2228): 91 nM

For `Cc1[nH]c2cc(Nc3ncc(Cl)c(Nc4ccccc4NS(C)(=O)=O)n3)ccc2c1C(=O)N1CCC(C)CC1`, which IC50 [1] is on record?
Its IC50 is > 1000 nM.

And the IC50 (KARPAS-299)?
The IC50 was 52 nM.

What about the IC50 [2] of the same compound?
Its IC50 is 6.5 nM.

What about the IC50 [3] of the same compound?
Its IC50 is 8.3 nM.

And the IC50 (A549)?
The IC50 was > 20000 nM.

And the IC50 (NCI-H2228)?
The IC50 was 203 nM.

And the IC50 [4]?
The IC50 was 12.7 nM.

Which IC50 (KARPAS-299) does the source give for `CNC(=O)c1ccccc1Nc1nc(Nc2ccc3c(C(=O)N4CCN(C)CC4)c(C)[nH]c3c2)ncc1Cl` here?
The IC50 was 36 nM.

And the IC50 (A549)?
The IC50 was 720 nM.

What about the IC50 (NCI-H2228) of the same compound?
Its IC50 is 83 nM.

`Cc1[nH]c2cc(Nc3ncc(Cl)c(Nc4ccccc4NS(C)(=O)=O)n3)ccc2c1C(=O)N1CCCCC1` was tested. Which IC50 (KARPAS-299) did it give?
The IC50 was 247 nM.

And the IC50 (A549)?
Its IC50 is 5920 nM.

What about the IC50 (NCI-H2228) of the same compound?
The IC50 was 260 nM.

For `CNC(=O)c1ccccc1Nc1nc(Nc2ccc3c(C(=O)N4CCC(C)CC4)c(C)[nH]c3c2)ncc1Cl`, which IC50 [1] is on record?
Its IC50 is > 1000 nM.

And the IC50 (KARPAS-299)?
The IC50 was 86 nM.

And the IC50 [2]?
The IC50 was 6.7 nM.

What about the IC50 [3] of the same compound?
Its IC50 is 3.9 nM.

And the IC50 (A549)?
Its IC50 is > 20000 nM.

And the IC50 (NCI-H2228)?
Its IC50 is 129 nM.

And the IC50 [4]?
The IC50 was 4.8 nM.

`CNC(=O)c1ccccc1Nc1nc(Nc2ccc3c(C(=O)N4CCCC4)c(C)[nH]c3c2)ncc1Cl` was tested. Which IC50 (KARPAS-299) did it give?
The IC50 was 39 nM.

And the IC50 (A549)?
The IC50 was 2720 nM.

And the IC50 (NCI-H2228)?
The IC50 was 70 nM.

Which IC50 (KARPAS-299) does the source give for `Cc1[nH]c2cc(Nc3ncc(Cl)c(Nc4ccccc4NS(C)(=O)=O)n3)ccc2c1C(=O)N1CCCC1` here?
The IC50 was 52 nM.

What about the IC50 (A549) of the same compound?
The IC50 was 974 nM.

What about the IC50 (NCI-H2228) of the same compound?
Its IC50 is 102 nM.
